In one series the test system is E. coli NIHJ. Kind of series: Antibacterial activity (MIC), standard method of the Japanese Society of Chemotherapy. It is filed as cell-based. The following applies: Escherichia coli. As to the method: (§1) Antibacterial activity of the compounds of the present invention was measured in accordance with the standard method designated by the Japanese Society of Chemotherapy. The results are shown in MIC values (μg/mL) (Table 1). For comparison with the MIC values of the compounds of the present invention, MIC values of levofloxacin (LVFX), ciprofloxacin (CPFX), and 7-[3-(R)-(1-aminocyclopropyl)pyrrolidin-1-yl]-8-cyano-1-[2-(S)-fluoro-1-(R)-cyclopropyl]-1,4-dihydro-4-oxoquinoline-3-carboxylic acid (control drug 1: represented by the following formula), which is described in International Publication WO 02/40478 pamphlet, are also shown in the table.

For another series, the system named is E. faevcalis ATCC 19433. Described as above. Format: cell-based. Here is the method: as §1
The subject of another series is K. pneumoniae TYPE I. Described as above. Format: cell-based. The following applies: Klebsiella pneumoniae. Here is the method:
as §1

For a further series, the system named is P. Vulgaris 08601. The description is as above. As to conditions: Proteus vulgaris. Format: cell-based. As to the method: as §1
Another series has as its system P. aeruginosa 32104. The description is as above. Format: cell-based. The following applies: Pseudomonas aeruginosa. Here is the method:
as §1

Another series has as its system P. aeruginosa 32121. The description is as above. It is filed as cell-based. As to conditions: Pseudomonas aeruginosa. Here is the method: as §1
In another series the test system is S. aureus 870307. Described as above. As to conditions: Staphylococcus aureus. Format: cell-based. Here is the method:
as §1

Another series deals with S. aureus FDA 209P. The description is as above. The following applies: Staphylococcus aureus, FDA209P. It is filed as cell-based. Here is the method: as §1
The test system of another series is S. epidermidis 56500. The series is described as above. Format: cell-based. As to conditions: Staphylococcus epidermidis. As to the method: as §1
A further series concerns S. flexneri 2A 5503. Described as above. It is filed as cell-based. As to conditions: Shigella flexneri, 2A5503. As to the method:
as §1

In another series the test system is S. maltophilia IID 1275. The description is as above. The following applies: Stenotrophomonas maltophilia, IID1275. Format: cell-based. Here is the method: as §1
Another series concerns S. marcescens 10100. Described as above. The following applies: Serratia marcescens. It is filed as cell-based. As to the method: as §1
Another series relates to S. pneumoniae J24. The description is as above. Format: cell-based. The following applies: Streptococcus pneumoniae. As to the method:
as §1

A further series deals with S. pyogenes G-36. Described as above. It is filed as cell-based. As to conditions: Streptococcus pyogenes, G36. Here is the method:
as §1

Series [1] deals with mouse bone marrow polychromatic erythrocytes. Kind of series: Mouse bone marrow micronucleus test. Format: in vivo. The following applies: male Slc:ddY mice, 24 hours after administration. As to the method:
By use of compound Nos. 1 and 2, a mouse bone marrow micronucleus test was performed through the following method.
Groups of mice, each consisting of five, six-week-old, male Slc:ddY mice, were used. Compound Nos. 1 and 2 were dissolved in and diluted with 0.1 mol/L NaOH/saline. The medium; i.e., 0.1 mol/L NaOH/saline, was used as a control, and a drug solution which had been prepared by dissolving and diluting cyclophosphamide in saline was used as a positive control drug. All the drug solutions were disinfected through filtration by use of a Mylex GS 0.22 μm filter. Each drug solution was intravenously administered with a regimen of 10 mL/kg single dose at a rate of 0.2 mL/min (100 and 150 mg/kg). Twenty four hours after administration, […] were collected from the femur bone, the smear preparations were prepared, and these were stained with […].

Setting [2] is: E. faevcalis ATCC 19433, read-out: MIC.
Setting [3] is: K. pneumoniae TYPE I, read-out: MIC.
The mark [4] stands for this setting: P. Vulgaris 08601, read-out: MIC.
Where [5] appears, read: P. aeruginosa 32104, read-out: MIC.
Setting [6] is: P. aeruginosa 32121, read-out: MIC.
Where [7] appears, read: S. aureus 870307, read-out: MIC.
The mark [8] stands for this setting: S. aureus FDA 209P, read-out: MIC.
The mark [9] stands for this setting: S. epidermidis 56500, read-out: MIC.
The mark [10] stands for this setting: S. maltophilia IID 1275, read-out: MIC.
The mark [11] stands for this setting: S. marcescens 10100, read-out: MIC.
Setting [12] is: S. pneumoniae J24, read-out: MIC.
[13] abbreviates: S. pyogenes G-36, read-out: MIC.

The results in this text go back to patent publication US7723524B2, “8-cyanoquinolonecarboxylic acid derivative” (Daiichi Pharmaceutical Co., Ltd., priority 2003, dated 2010).

≈ marks a conversion by molar mass, not a printed value. Like-named read-outs stand apart in the source and are kept apart here.

Consider `C[C@H]1COc2c(N3CCN(C)CC3)c(F)cc3c(=O)c(C(=O)O)cn1c23` [LVFX, levofloxacin, reference compound], for which the MIC (commonly the lowest concentration found to suppress growth) came out at 0.012 mg/L (≈ 0.0332 µM) with E. coli NIHJ (E. coli NIHJ, read-out: MIC); 0.78 mg/L (≈ 2.16 µM) with E. faevcalis ATCC 19433 (setting [2]); 0.1 mg/L (≈ 0.277 µM) in the series with K. pneumoniae TYPE I (setting [3]); 0.012 mg/L (≈ 0.0332 µM) in the series on P. Vulgaris 08601 (setting [4]); 0.2 mg/L (≈ 0.553 µM) with P. aeruginosa 32104 (setting [5]); 0.1 mg/L (≈ 0.277 µM) in the series on P. aeruginosa 32121 (setting [6]). Further, the minimal inhibitory concentration (MIC) in the series with S. aureus 870307 (setting [7]) is above 6.25 mg/L; in the series on S. aureus FDA 209P (setting [8]) it was 0.2 mg/L (≈ 0.553 µM); in the series with S. epidermidis 56500 (setting [9]) it was 0.39 mg/L (≈ 1.08 µM); in the series with S. flexneri 2A 5503 it was 0.025 mg/L (≈ 0.0692 µM); in the series on S. maltophilia IID 1275 (setting [10]), 0.39 mg/L (≈ 1.08 µM); in the series on S. marcescens 10100 (setting [11]), 0.1 mg/L (≈ 0.277 µM). For the same compound, the MIC in the series on S. pneumoniae J24 (setting [12]) and with S. pyogenes G-36 (setting [13]) was 0.78 mg/L (≈ 2.16 µM) each time.
For `N#Cc1c(N2CC[C@@H](C3(N)CC3)C2)c(F)cc2c(=O)c(C(=O)O)cn([C@@H]3C[C@@H]3F)c12` [No. 1], the MIC in the series on E. coli NIHJ (E. coli NIHJ, read-out: MIC) is at most 0.003 mg/L; with E. faevcalis ATCC 19433 (setting [2]) it was 0.025 mg/L (≈ 0.0603 µM); with K. pneumoniae TYPE I (setting [3]), 0.025 mg/L (≈ 0.0603 µM); in the series with P. Vulgaris 08601 (setting [4]), 0.006 mg/L (≈ 0.0145 µM); with P. aeruginosa 32104 (setting [5]) it was 0.1 mg/L (≈ 0.241 µM); in the series with P. aeruginosa 32121 (setting [6]), 0.05 mg/L (≈ 0.121 µM). Further, the minimal inhibitory concentration (MIC) in the series with S. aureus 870307 (setting [7]) is 0.05 mg/L (≈ 0.121 µM); in the series with S. aureus FDA 209P (setting [8]) it was at most 0.003 mg/L; with S. epidermidis 56500 (setting [9]), 0.006 mg/L (≈ 0.0145 µM); with S. flexneri 2A 5503 it was at most 0.003 mg/L; with S. maltophilia IID 1275 (setting [10]), 0.2 mg/L (≈ 0.483 µM); in the series on S. marcescens 10100 (setting [11]), 0.025 mg/L (≈ 0.0603 µM). The MIC in the series on S. pneumoniae J24 (setting [12]) and in the series with S. pyogenes G-36 (setting [13]) was 0.006 mg/L (≈ 0.0145 µM) each time. Further, the “difference in the micronucleus induction rate between the control and the administration group” value in [1] (150 mg/kg intravenous single dose) is listed as “no significant difference”. The “micronucleus test judgment result” value in series [1] (intravenous single dose, up to 150 mg/kg) is given as “negative”.
`N#Cc1c(N2CC[C@@H](C3(N)CC3)C2)c(F)cc2c(=O)c(C(=O)O)cn(C3CC3)c12` [No. 2]: the MIC in the series on E. coli NIHJ (E. coli NIHJ, read-out: MIC) is at most 0.003 mg/L; in the series with E. faevcalis ATCC 19433 (setting [2]), 0.025 mg/L (≈ 0.0631 µM); with K. pneumoniae TYPE I (setting [3]), 0.012 mg/L (≈ 0.0303 µM); in the series with P. Vulgaris 08601 (setting [4]) it was 0.006 mg/L (≈ 0.0151 µM); in the series with P. aeruginosa 32104 (setting [5]), 0.1 mg/L (≈ 0.252 µM); with P. aeruginosa 32121 (setting [6]) it was 0.05 mg/L (≈ 0.126 µM). Besides, the MIC was 0.05 mg/L (≈ 0.126 µM) in the series on S. aureus 870307 (setting [7]); at most 0.003 mg/L with S. aureus FDA 209P (setting [8]); 0.012 mg/L (≈ 0.0303 µM) with S. epidermidis 56500 (setting [9]); at most 0.003 mg/L against S. flexneri 2A 5503; 0.1 mg/L (≈ 0.252 µM) in the series with S. maltophilia IID 1275 (setting [10]); 0.025 mg/L (≈ 0.0631 µM) in the series on S. marcescens 10100 (setting [11]). The MIC in the series with S. pneumoniae J24 (setting [12]) and with S. pyogenes G-36 (setting [13]) was 0.006 mg/L (≈ 0.0151 µM) each time.
For the compound `CNC1([C@@H]2CCN(c3c(F)cc4c(=O)c(C(=O)O)cn([C@@H]5C[C@@H]5F)c4c3C#N)C2)CC1` [No. 3], the MIC in the series with E. coli NIHJ was at most 0.003 mg/L; in the series with E. faevcalis ATCC 19433 it was 0.05 mg/L (≈ 0.117 µM); with K. pneumoniae TYPE I it was 0.025 mg/L (≈ 0.0584 µM); with P. Vulgaris 08601, 0.012 mg/L (≈ 0.028 µM); with P. aeruginosa 32104 (32104), 0.1 mg/L (≈ 0.233 µM); with P. aeruginosa 32121 (32121), 0.05 mg/L (≈ 0.117 µM). Further, the MIC in the series on S. aureus 870307 (870307) is 0.025 mg/L (≈ 0.0584 µM); in the series with S. aureus FDA 209P, 0.006 mg/L (≈ 0.014 µM); against S. epidermidis 56500 (56500) it was 0.012 mg/L (≈ 0.028 µM); against S. flexneri 2A 5503, at most 0.003 mg/L; with S. maltophilia IID 1275, 0.1 mg/L (≈ 0.233 µM); in the series with S. marcescens 10100 (10100) it was 0.05 mg/L (≈ 0.117 µM). The MIC against S. pneumoniae J24 (J24) and in the series with S. pyogenes G-36 was 0.006 mg/L (≈ 0.014 µM) each time.
Take `CCNC1([C@@H]2CCN(c3c(F)cc4c(=O)c(C(=O)O)cn([C@@H]5C[C@@H]5F)c4c3C#N)C2)CC1` [No. 4]: the MIC against E. coli NIHJ turned out to be 0.006 mg/L (≈ 0.0136 µM); in the series with E. faevcalis ATCC 19433 it was 0.05 mg/L (≈ 0.113 µM); in the series on K. pneumoniae TYPE I, 0.025 mg/L (≈ 0.0565 µM); against P. Vulgaris 08601, 0.012 mg/L (≈ 0.0271 µM); against P. aeruginosa 32104 (32104), 0.2 mg/L (≈ 0.452 µM); against P. aeruginosa 32121 (32121) it was 0.1 mg/L (≈ 0.226 µM). The MIC came to 0.025 mg/L (≈ 0.0565 µM) in the series with S. aureus 870307 (870307); 0.006 mg/L (≈ 0.0136 µM) in the series on S. aureus FDA 209P; 0.006 mg/L (≈ 0.0136 µM) against S. epidermidis 56500 (56500); 0.006 mg/L (≈ 0.0136 µM) with S. flexneri 2A 5503; 0.2 mg/L (≈ 0.452 µM) with S. maltophilia IID 1275; 0.1 mg/L (≈ 0.226 µM) in the series on S. marcescens 10100 (10100). Besides, the values for the MIC against S. pneumoniae J24 (J24) and against S. pyogenes G-36 were 0.006 mg/L (≈ 0.0136 µM) and 0.025 mg/L (≈ 0.0565 µM), respectively.
